Measurements as given in patent publication US20050143450A1, “Alkyl PCDF as a treatment for prostate cancer” (priority 2002, published 2005).
Where two headings read alike, the source gives them in different places.

Legend:
AhR = molecular target: T1, AhR (Homo sapiens, UniProt P35869); assay: AhR activation, pDRE3 luciferase transient transfection in LNCaP cells; format: cell-based
T1 construct: LNCaP cells were transfected with pDRE3, treated with various compounds and luciferase activity was determined; endogenous in cells; host or cells: LNCaP
T1 sequence (P35869 11-848): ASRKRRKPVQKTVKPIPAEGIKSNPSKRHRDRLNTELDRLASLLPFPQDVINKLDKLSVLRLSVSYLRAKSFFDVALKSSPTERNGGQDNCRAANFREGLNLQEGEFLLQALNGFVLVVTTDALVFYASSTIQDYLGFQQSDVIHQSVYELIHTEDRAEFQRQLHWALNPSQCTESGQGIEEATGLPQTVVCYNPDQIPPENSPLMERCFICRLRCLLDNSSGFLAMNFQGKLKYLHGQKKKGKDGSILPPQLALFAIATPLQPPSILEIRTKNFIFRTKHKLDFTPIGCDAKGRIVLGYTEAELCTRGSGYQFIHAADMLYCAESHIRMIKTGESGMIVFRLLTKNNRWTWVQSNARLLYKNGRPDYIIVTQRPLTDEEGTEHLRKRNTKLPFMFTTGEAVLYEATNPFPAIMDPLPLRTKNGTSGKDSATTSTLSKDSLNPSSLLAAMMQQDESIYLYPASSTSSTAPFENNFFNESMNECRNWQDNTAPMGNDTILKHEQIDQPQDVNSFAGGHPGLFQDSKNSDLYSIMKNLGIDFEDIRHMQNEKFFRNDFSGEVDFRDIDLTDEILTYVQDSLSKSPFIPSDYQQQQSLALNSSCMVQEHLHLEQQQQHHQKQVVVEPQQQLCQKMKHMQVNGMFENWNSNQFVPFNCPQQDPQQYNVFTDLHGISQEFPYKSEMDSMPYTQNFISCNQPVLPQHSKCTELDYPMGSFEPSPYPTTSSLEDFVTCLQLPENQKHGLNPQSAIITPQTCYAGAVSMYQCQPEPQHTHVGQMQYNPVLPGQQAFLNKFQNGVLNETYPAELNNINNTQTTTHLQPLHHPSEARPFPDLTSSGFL
Procedure: (§1) After 24 h, cells were transfected using Lipofectamine and Plus reagents (Invitrogen) according to manufacturer's instructions. LNCaP and ZR-75 cells were transfected with 500 ng/well of either reporter plasmid, and 250 ng/well of pcDNA3.1-β-gal (Invitrogen) as the internal control. In addition, ZR-75 cells were transfected with 500 ng hAR. Twenty-four hours after treatment, cells were harvested by scraping with 200 μL/well of reporter lysis buffer. Lysates were centrifuged at 40,000 g and luciferase and β-galactosidase activity was assayed with 30 μL of the supernatant extract per sample using a Lumicount luminometer (PerkinElmer, Boston, Mass.). Luciferase activity was normalized to β-galactosidase activity for each transfection well.
LNCaP cells were transfected with pDRE3, treated with various compounds and luciferase activity was determined as described in the above Examples.

LNCaP cells = format: cell-based, human
Procedure: After trypsinization and low-speed centrifugation, LNCaP cells were resuspended and counted using a Coulter cell counter (Beckman Coulter, Fullerton, Calif.). Cells were seeded at a density of 5×10^4/35-mm well using DME-F12 without phenol red, supplemented with 2.5% charcoal-stripped fetal bovine serum (FBS). Twenty-four hours after seeding, initial treatment was applied and then subsequently reapplied with fresh medium every two days until harvesting by trypsinization. Cells were counted after harvesting using a Coulter counter.

[1] = system: androgen-responsive probasin gene promoter (pPB); format: cell-based, human
Procedure: as §1, with “ZR-75 human breast cancer and LNCaP human prostate cancer cells were obtained from American Type Culture Collection (Manassas, Va.) and were maintained in RPMI 1640 medium supplemented with 10% FBS, 1% antibiotic/antimycotic solution, 1.5 g/L sodium bicarbonate, and 10 mM HEPES, final pH of 7.4. Cells were seeded at 2.75×10^5 per 22-mm well in DME-F12 without phenol red, supplemented with 2.5% charcoal-stripped fetal bovine serum (FBS). After” for “After”

[2] = system: LNCaP prostate cancer cells; format: cell-based, human
Procedure: Cells were analyzed on a FACS Calibur (Becton Dickinson, San Jose, Calif.) flow cytometer, equipped with a 15 mW air-cooled argon laser, using CellQuest (Becton Dickinson) acquisition software. Propidium iodide (PI) fluorescence was collected through a 585/42-nm bandpass filter, and list mode data were acquired on a minimum of 12,000 single cells defined by a dot plot of PI-width versus PI-area. Data analysis was performed in ModFit LT (Verity Software House, Topsham, Me.) using PI-width versus PI-area to exclude cell aggregates.
The effects of TCDD on cell cycle progression was also determined in LNCaP cells treated with 1.0, 10 and 100 nM TCDD for 48 h followed by FACS analysis (Table 1).

AR [3] = assay: AR protein levels in LNCaP cells by Western blot; format: cell-based, human; settings: 6 h
Procedure: Cells were harvested 6 h after treatment using 200 μL/22-mm well of ice cold lysis buffer (50 mM HEPES, pH 7.5, 500 mM NaCl, 10% (v/v) glycerol, 1% (v/v) Triton-X 100, 1.5 mM MgCl2, 1 mM EGTA) (McDougal et al., 2001). Lysates were centrifuged at 40,000 g, and supernatant was collected as extract. Whole cell extracts (50 μg/sample) were separated by electrophoresis on a tiered 7.5% (top)/12.5% (bottom) SDS-polyacrylamide gel and transferred to PVDF membrane (Bio-Rad, Richmond, Calif.). The membrane was blocked with 5% milk (m/v) in tris-buffered saline 0.05% Tween (TBST). Membranes were incubated with primary antibodies for AR (sc-7305), cyclin D1 (sc-718), or p27 (sc-528) (each from Santa Cruz Biotechnology, Santa Cruz, Calif.) at 1:1000 in 5% milk/TBST for 3 h. Membranes were washed twice in TBST. Horseradish peroxidase (HRP)-conjugated secondary antibodies were applied at 1:5000 in 5% milk/TBST for 1 h. After two TBST washes, PVDF-bounded antibodies were detected using a chemiluminescence kit (Western Lightning, PerkinElmer), ImageTek-H film (American X-Ray and Medical Supply, Rancho Cordova, Calif.) and an autoprocessor (Hope Macro-Med, Warminster, Pa.). Quantitation of the Western blot was performed using a Sharp JX-330 scanner (Sharp, Mahwah, N.J.) and Zero-D software (Scanalytics, Billerica, Mass.).

AR [4] = molecular target: T2, AR (Homo sapiens, UniProt P10275, T878A); format: cell-based; settings: LNCaP, pPB, HPTE 10 μM
T2 construct: AR protein levels in whole cell lysates were determined by Western blot analysis; endogenous in cells; host or cells: LNCaP
T2 sequence (P10275 1-920 T878A): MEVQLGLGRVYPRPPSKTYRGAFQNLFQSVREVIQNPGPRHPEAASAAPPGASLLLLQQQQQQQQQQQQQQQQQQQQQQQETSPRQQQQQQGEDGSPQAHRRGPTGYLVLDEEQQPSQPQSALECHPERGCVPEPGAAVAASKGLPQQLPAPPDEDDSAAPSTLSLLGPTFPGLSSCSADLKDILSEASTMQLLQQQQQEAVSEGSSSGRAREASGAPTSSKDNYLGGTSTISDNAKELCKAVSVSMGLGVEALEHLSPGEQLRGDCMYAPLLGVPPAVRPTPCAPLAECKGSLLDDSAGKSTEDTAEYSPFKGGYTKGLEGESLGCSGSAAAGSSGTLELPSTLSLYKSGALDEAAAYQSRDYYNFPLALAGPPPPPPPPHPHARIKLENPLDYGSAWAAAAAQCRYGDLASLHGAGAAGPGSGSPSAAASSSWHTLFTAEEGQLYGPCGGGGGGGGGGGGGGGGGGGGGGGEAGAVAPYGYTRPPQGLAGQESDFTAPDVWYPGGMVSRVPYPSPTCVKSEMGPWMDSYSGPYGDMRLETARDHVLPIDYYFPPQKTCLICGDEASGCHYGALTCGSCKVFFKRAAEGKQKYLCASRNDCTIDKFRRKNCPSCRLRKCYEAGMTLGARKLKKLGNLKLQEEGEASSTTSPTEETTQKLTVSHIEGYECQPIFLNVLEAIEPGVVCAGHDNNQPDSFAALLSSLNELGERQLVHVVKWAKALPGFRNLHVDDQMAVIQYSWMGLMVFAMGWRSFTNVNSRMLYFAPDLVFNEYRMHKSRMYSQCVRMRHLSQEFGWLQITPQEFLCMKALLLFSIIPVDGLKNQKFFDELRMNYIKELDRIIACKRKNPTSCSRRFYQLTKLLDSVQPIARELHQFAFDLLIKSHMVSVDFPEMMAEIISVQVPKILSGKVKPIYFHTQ
Procedure: as §1
The transfected cells were then treated with hormone or AhR agonist alone or in combination and luciferase activity was determined as described in the above examples.

AR [5] = molecular target: T2, AR; format: cell-based; settings: LNCaP
Procedure: as §1
Next, LNCaP cells were transfected with pARR3 construct that contained three tandem (3) copies of the probasin androgen response element. The transfected cells were treated with hormone or AhR agonist alone or in combination and luciferase activity was determined as described in the above examples.

For `C[C@]12CCC(=O)C[C@@H]1CC[C@@H]1[C@@H]2CC[C@]2(C)[C@@H](O)CC[C@@H]12` [DHT, dihydrotestosterone], which “luciferase activity induction compared to solvent control (DMSO)” value (AhR; pDRE3, 10 nM) is on record?
Its value is “did not significantly induce activity”.

What about the “effect on 6-MCDF-induced luciferase activity” value (AhR; pDRE3, hormone in combination with 6-MCDF) of the same compound?
The value was “significantly inhibited”.

And the hormone-induced cell growth (LNCaP cells)?
The hormone-induced cell growth was “not observed”.

What about the reporter gene activity [1] of the same compound?
Its reporter gene activity is “did not activate”.

What about the “Percent Distribution G0/G1” value [2] of the same compound?
The value was 73.400 ± 1.179%.

And the “Percent Distribution G2/M” value [2]?
The value was 9.433 ± 1.011%.

And the “Percent Distribution S” value [2]?
Its value is 17.167 ± 0.296%.

What about the “cell cycle distribution, difference between solvent (DMSO) and DHT” value [2] of the same compound?
Its value is “minimal differences”.

For `C[C@]12CC[C@@H]3c4ccc(O)cc4CC[C@H]3[C@@H]1CC[C@@H]2O` [E2, 17β-estradiol], which reporter gene activity ([1]; ZR-75 cells, pPB alone) is on record?
The reporter gene activity was “did not activate”.

With `C[C@]12CC[C@@H]3c4ccc(O)cc4C[C@@H](CCCCCCCCC[S+]([O-])CCCC(F)(F)C(F)(F)F)[C@H]3[C@@H]1CC[C@@H]2O` (stereo partly shown) [ICI 182780] as the compound, how does the “AR levels in combination with DHT compared to DHT alone” value (AR [3]) read?
The value was “not decreased”.

What about the “AR levels in combination with E2 compared to E2 alone” value (AR [3]) of the same compound?
The value was “not decreased”.

What about the “AR protein levels, compound alone” value (AR [3]; DHT 10 nM, E2 10 nM, TCDD 10 nM, 6-MCDF 2 μM, HPTE 10 μM) of the same compound?
Its value is “increased”.

And the “effect on DHT-induced luciferase activity” value (AR [4]; cotreatment with 10 nM DHT, MCDF 2 μM)?
The value was “only minimal inhibition”.

What about the “effect on E2-induced luciferase activity” value (AR [4]; cotreatment with 10 nM E2) of the same compound?
The value was “significantly inhibited”.

And the “effect on DHT-induced luciferase activity” value (AR [5]; pARR3, cotreatment with DHT)?
The value was “inhibited”.

What about the “effect on E2-induced luciferase activity” value (AR [5]; pARR3, cotreatment with E2) of the same compound?
The value was “inhibited”.
